Measured values reported in PubChem BioAssay (NCI).
“And” between values parts separate entries of the source, which are not always exact repeats. Equal entries are not always repeated.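 Compound exposure: 48 hours, 5 concentrations, 96-well plates. GI50 = concentration required for 50% inhibition of growth. TGI: concentration producing complete growth inhibition.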

Legend:
Experiment in all cases: DTP human tumour cell line panel, 48 h
[1] = tested on: LOX IMVI melanoma
[2] = tested on: SF-268 CNS
[3] = tested on: IGROV1 ovarian
[4] = tested on: SF-295 CNS
[5] = tested on: UO-31 renal
[6] = tested on: M14 melanoma
[7] = tested on: SK-MEL-2 melanoma
[8] = tested on: HL-60(TB) leukemia
[9] = tested on: OVCAR-8 ovarian
[10] = tested on: NCI/ADR-RES ovarian

Compound	GI50 [1]	TGI [1] [µM]	GI50 [2]	TGI [2]	GI50 [3]	TGI [3]	GI50 [4]	TGI [4] [µM]	GI50 [5]	TGI [5]	GI50 [6]	TGI [6]	GI50 [7] [µM]	TGI [7]	GI50 [8]	TGI [8]	GI50 [9]	TGI [9]	GI50 [10]	TGI [10]
O=Nc1c2cccnc2n2nnc3ccc(Cl)cc3c12	1.35 µM	6.19	1.8 µM	9.4 µM	1.25 µM	7.69 µM	4.24 µM	16.2	1.05 µM	9.51 µM	2.84 µM	8.36 µM	3.6	13.3 µM	0.272 µM	50 µM	3.74 µM	11.2 µM	1.29 µM	7.84 µM
OCCCNCc1ccccn1		> 100		> 100 µM		> 100 µM		> 100		> 100 µM		> 100 µM		> 100 µM		> 100 µM		> 100 µM		> 100 µM
CCCCS(=N)(=O)CC[C@H](N)C(=O)O (stereo partly drawn)	2.12 µM		> 10000 µM	5000 µM and > 10000 µM	336 µM	4980 µM and 6370 µM		> 10000	> 10000 µM	2700 µM and > 10000 µM	> 5620 µM	> 5620 µM	> 7640	> 10000 µM	32.9 µM	1270 µM and 224 µM		2920 µM and > 2770 µM	1770 µM	5000 µM and > 6020 µM
CCOC(=O)/C(C1=CC(=O)C(=O)c2ccccc21)=C(/C)NCc1ccccc1	1.15 µM	2.36	1.64 µM	3.43 µM	1.05 µM		1.76 µM	3.68	3.35 µM	> 100 µM	1.71 µM	3.17 µM	5.87	> 100 µM	0.453 µM	2.25 µM	3.69 µM	9.5 µM	2.02 µM	5.08 µM
OC1CCC(Oc2cccc3cnc(Nc4ccc5nc[nH]c5c4)nc23)CC1 (stereo not drawn)	0.231 µM	11.4	0.413 µM	12.8 µM	0.287 µM	16.6 µM	0.429 µM	12	0.227 µM	1.88 µM	0.333 µM	3.11 µM	0.873	2.93 µM	0.155 µM	0.447 µM	0.521 µM	43 µM	1.6 µM	13 µM
CC[C@@]1(OC(=O)CCC(=O)O)C(=O)OCc2c1cc1n(c2=O)Cc2cc3ccccc3nc2-1		0.596		> 60.9 µM		5.98 µM		1.78		0.493 µM		1.41 µM		4.96 µM		0.449 µM		9.38 µM		0.791 µM
O=[N+]([O-])/C=C\c1ccc2c(c1)OCO2	1.83 µM	4.15	10.5 µM	22.4 µM	1.98 µM	4.67 µM	11.5 µM	26.5	1.59 µM	3.2 µM	2.08 µM	4.77 µM	2.2	4.99 µM	10.2 µM	46.5 µM	2.86 µM	10.4 µM	10.3 µM	29.3 µM
Cc1ccc2c(c1)sc(-c1ccc(N(C)C)cc1)[n+]2C	1.28 µM	21.8	2.44 µM	24.9 µM	3.77 µM	> 100 µM	0.72 µM	> 22.8	18.9 µM	> 100 µM	1.79 µM	> 38 µM	4.25	> 38 µM	0.273 µM	10.5 µM	1.41 µM	34.8 µM	> 95.8 µM	> 100 µM
Nc1ccc2c(c1)[O][Sn]([c]1ccccc1)([c]1ccccc1)[O]C2=O	3.57 µM	11.5	7.63 µM	21.2 µM	12.4 µM	29.2 µM	6.38 µM	14.5	12.5 µM	26 µM	11.2 µM	25.4 µM	6.19	17.6 µM	2.64 µM	10.4 µM	13.2 µM	28.2 µM	9.08 µM	30.2 µM
CN(C)CCNC(=O)c1cc([N+](=O)[O-])cc2ccc(-c3ccccc3)nc12		30.5		50 µM		25.6 µM		> 57.3		11.2 µM		> 100 µM		28.7 µM		21.7 µM		> 39.2 µM		9.97 µM
ClCCn1cnc2c(SCc3ccccc3)ncnc21	0.534 µM	18.6	1.49 µM	> 100 µM	0.497 µM	10.7 µM	3.12 µM	> 100	2.13 µM	39.4 µM	7.04 µM	> 100 µM	2.24	> 100 µM	4.68 µM	68.3 µM	1.18 µM	> 100 µM	4.94 µM	> 100 µM
COc1ccc(N=Cc2ccc(N(CCC#N)CCC#N)cc2)cc1		> 100		> 100 µM		> 100 µM		> 100		> 100 µM		> 100 µM		> 84.2 µM		> 100 µM		> 100 µM		> 100 µM
O=C1/C(=C\c2cccs2)Oc2ccccc21		> 100		> 100 µM		> 100 µM		> 100		83.3 µM		> 100 µM		> 100 µM		> 100 µM		> 100 µM		> 100 µM
Cn1cnc([N+](=O)[O-])c1Sc1ncnc2nc[nH]c12	1.11 µM and 1.63 µM	> 100	5.32 µM and 6.48 µM	> 100 µM	9.13 µM and 12.1 µM	> 100 µM	1.61 µM and 9.82 µM	> 100	2.39 µM and 14.8 µM	> 100 µM	0.755 µM and 2.77 µM	60.5 µM and > 100 µM		> 100 µM	11 µM and 16.9 µM	71 µM and > 64.7 µM	3.68 µM and > 26.6 µM	> 100 µM	3.27 µM and 5.39 µM	> 100 µM
CC(O)C(NC(=O)C(CS)NC(=O)C(CO)NC(=O)C(CCCCN)NC(=O)C(Cc1c[nH]c2ccccc12)NC(=O)C(Cc1ccc(O)cc1)NC(=O)C(CS)NC(=O)C(N)Cc1ccccc1)C(N)=O (stereo not drawn)		> 25		> 25 µM	20.2 µM	> 25 µM and 44 µM		> 25		> 25 µM		> 25 µM	22	> 25 µM and 49.5 µM	21.5 µM	> 25 µM and 40.5 µM		> 25 µM and 81.5 µM		> 25 µM
CCN(CC)C(=S)SSC1CCCCC1	8.6 µM	24.3	23.1 µM	60.9 µM	17.2 µM	38.4 µM	17.6 µM	44.6	12.1 µM	25.7 µM	14.4 µM	30.9 µM	26.7	61.2 µM	13.6 µM	47.2 µM	15.8 µM	34.9 µM	21.3 µM	47 µM
